Literature values, collected in US9833455B2, “Preparation and methods of use for ortho-aryl 5-membered heteroaryl-carboxamide containing multi-targeted kinase inhibitors” (Spacefill Enterprises LLC, priority 2011, dated 2017).

Assays:
Conditions in all cases: 1 μM, duplicate, without preincubation; cited from earlier work
[1] = molecular target: T1, p38-beta (Homo sapiens, UniProt Q15759)
T1 construct: literature Ambit Biosciences

[2] = molecular target: T2, DCAMKL1 (Homo sapiens, UniProt O15075)
T2 construct: literature Ambit Biosciences
T2 sequence (O15075 1-740): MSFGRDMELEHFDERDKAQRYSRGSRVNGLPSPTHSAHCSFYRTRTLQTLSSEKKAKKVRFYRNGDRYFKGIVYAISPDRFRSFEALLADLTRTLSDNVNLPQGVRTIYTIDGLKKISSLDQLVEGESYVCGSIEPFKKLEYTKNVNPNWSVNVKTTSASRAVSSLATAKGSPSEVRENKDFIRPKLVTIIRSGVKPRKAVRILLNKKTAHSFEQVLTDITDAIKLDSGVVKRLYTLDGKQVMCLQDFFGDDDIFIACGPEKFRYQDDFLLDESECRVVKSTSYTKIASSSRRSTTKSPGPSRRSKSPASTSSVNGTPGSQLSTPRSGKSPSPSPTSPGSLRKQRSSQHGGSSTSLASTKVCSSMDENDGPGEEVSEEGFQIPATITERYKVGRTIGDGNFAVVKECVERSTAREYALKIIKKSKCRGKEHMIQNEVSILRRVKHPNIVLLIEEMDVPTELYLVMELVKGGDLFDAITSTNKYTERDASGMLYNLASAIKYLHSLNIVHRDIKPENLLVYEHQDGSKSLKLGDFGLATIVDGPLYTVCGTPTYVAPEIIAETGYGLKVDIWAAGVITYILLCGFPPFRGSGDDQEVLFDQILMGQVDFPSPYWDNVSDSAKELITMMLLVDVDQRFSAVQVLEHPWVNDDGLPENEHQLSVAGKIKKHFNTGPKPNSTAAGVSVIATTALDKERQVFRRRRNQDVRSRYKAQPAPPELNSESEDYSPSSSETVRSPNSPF

[3] = molecular target: T3, RIOK2 (Homo sapiens, UniProt Q9BVS4)
T3 construct: literature Ambit Biosciences
T3 sequence (Q9BVS4 whole entry): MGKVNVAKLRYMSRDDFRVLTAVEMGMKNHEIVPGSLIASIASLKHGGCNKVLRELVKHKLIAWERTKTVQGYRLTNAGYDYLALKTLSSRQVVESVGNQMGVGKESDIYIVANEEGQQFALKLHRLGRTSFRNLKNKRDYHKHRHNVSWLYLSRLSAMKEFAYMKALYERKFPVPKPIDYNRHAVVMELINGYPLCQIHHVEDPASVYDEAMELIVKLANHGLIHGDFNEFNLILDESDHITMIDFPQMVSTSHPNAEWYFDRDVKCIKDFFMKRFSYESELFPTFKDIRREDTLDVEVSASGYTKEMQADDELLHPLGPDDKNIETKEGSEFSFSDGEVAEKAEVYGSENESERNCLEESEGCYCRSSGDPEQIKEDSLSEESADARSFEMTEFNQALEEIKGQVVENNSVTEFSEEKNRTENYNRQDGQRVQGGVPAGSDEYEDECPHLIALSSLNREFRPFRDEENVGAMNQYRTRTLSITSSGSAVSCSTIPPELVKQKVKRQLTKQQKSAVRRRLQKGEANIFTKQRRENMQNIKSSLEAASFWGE

[4] = molecular target: T4, ERBB2 (Homo sapiens, UniProt P04626)
T4 construct: literature Ambit Biosciences

[5] = molecular target: T5, PLK4 (Homo sapiens, UniProt O00444)
T5 construct: literature Ambit Biosciences
T5 sequence (O00444 1-970): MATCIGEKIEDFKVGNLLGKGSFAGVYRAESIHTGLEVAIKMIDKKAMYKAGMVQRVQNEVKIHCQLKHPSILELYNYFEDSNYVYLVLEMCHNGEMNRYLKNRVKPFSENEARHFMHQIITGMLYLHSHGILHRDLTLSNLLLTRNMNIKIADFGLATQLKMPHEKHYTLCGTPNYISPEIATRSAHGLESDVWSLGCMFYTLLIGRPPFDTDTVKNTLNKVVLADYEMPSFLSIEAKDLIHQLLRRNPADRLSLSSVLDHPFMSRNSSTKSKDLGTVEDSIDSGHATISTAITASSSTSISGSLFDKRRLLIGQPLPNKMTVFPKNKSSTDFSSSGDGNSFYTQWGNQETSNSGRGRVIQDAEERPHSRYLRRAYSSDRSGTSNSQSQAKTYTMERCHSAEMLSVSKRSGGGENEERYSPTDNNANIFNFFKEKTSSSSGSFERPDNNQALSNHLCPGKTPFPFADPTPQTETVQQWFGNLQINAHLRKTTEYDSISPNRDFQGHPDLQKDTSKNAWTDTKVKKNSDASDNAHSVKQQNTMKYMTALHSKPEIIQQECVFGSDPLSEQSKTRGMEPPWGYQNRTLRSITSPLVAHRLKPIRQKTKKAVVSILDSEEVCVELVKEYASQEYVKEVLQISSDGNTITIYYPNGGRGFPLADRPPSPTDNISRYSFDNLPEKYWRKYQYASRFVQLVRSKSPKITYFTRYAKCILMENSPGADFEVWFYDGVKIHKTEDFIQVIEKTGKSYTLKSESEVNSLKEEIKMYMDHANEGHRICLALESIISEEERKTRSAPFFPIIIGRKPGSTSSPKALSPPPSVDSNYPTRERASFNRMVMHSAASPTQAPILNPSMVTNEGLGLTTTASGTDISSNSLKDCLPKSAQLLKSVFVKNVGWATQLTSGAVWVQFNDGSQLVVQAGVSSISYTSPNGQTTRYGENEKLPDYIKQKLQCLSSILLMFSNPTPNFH

[6] = molecular target: T6, PIK3CA (Homo sapiens, UniProt P42336)
T6 construct: literature Ambit Biosciences
T6 sequence (P42336 whole entry): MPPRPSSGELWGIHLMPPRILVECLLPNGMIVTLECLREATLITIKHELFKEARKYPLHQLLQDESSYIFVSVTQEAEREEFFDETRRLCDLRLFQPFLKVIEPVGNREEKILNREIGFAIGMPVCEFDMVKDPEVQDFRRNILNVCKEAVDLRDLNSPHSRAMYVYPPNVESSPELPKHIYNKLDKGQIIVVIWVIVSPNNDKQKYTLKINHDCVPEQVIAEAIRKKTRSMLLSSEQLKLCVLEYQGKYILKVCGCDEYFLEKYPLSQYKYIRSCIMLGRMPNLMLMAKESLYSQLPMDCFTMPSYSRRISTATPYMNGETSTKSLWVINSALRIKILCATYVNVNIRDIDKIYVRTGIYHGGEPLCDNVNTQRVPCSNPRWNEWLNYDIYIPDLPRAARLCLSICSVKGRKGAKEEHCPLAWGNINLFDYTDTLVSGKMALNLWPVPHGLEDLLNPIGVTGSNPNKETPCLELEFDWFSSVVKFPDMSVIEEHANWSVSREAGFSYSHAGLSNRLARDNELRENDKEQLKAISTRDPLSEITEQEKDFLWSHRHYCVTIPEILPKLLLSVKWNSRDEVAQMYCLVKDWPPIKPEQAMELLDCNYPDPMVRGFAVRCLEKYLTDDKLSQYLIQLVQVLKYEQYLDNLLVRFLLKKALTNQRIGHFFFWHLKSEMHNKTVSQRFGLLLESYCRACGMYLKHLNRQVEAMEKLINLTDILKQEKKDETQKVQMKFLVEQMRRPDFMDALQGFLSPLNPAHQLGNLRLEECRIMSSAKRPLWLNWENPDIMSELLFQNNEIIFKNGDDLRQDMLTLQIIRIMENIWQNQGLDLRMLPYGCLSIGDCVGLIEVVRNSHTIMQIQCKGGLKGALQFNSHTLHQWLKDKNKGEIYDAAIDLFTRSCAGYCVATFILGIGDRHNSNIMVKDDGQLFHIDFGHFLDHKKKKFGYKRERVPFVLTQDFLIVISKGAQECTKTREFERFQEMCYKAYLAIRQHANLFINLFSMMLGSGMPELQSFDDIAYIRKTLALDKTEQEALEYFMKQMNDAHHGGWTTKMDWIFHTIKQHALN

[7] = molecular target: T7, PRKCE (Homo sapiens, UniProt Q02156)
T7 construct: literature Ambit Biosciences
T7 sequence (Q02156 1-737): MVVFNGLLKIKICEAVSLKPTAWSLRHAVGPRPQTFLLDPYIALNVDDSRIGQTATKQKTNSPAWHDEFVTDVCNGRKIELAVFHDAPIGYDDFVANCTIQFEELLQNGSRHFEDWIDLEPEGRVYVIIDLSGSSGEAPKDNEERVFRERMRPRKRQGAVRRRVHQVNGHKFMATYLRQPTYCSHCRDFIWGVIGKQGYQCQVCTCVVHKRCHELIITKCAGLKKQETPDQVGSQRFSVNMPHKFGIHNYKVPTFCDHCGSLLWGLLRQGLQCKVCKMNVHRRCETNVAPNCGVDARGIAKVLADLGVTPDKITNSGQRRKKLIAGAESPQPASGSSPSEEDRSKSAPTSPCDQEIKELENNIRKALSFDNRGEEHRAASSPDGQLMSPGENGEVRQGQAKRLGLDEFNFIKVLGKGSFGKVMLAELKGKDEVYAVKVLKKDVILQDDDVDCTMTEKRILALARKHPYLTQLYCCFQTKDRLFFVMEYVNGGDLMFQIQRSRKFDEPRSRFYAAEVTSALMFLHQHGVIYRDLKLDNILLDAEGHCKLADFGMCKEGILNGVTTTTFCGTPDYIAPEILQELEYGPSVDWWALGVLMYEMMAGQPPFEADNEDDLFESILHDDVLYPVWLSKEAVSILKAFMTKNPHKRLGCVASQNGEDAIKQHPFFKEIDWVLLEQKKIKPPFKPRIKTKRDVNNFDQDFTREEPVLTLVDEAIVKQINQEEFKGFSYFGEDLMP

[8] = molecular target: BRAF(V600E) (Homo sapiens, UniProt P15056, V600E); design: literature Ambit Biosciences
Chain of BRAF(V600E) (P15056 whole entry V600E): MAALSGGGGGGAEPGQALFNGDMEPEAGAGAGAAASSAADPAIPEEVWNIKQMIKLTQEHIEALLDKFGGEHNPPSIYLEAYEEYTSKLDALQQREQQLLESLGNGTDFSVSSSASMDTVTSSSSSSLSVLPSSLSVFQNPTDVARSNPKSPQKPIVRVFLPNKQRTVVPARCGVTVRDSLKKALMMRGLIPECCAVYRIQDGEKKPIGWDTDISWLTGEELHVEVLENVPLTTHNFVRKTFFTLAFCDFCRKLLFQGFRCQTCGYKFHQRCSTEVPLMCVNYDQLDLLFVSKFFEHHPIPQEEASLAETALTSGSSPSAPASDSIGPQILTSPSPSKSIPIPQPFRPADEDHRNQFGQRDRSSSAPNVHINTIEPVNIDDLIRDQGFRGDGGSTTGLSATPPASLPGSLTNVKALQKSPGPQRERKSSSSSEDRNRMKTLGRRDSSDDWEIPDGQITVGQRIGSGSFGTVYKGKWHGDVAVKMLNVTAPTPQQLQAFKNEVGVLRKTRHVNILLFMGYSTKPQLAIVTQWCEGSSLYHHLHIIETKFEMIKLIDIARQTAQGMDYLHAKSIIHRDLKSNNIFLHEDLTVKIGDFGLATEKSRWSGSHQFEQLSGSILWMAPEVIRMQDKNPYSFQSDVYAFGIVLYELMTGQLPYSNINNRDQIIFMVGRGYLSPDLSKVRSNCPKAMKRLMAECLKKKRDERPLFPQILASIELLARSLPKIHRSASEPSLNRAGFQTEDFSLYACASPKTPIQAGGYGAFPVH

[9] = molecular target: T8, TYK2 (catalytic) (Homo sapiens, UniProt P29597)
T8 construct: catalytic; literature Ambit Biosciences
T8 sequence (P29597 897-1176 limits assumed): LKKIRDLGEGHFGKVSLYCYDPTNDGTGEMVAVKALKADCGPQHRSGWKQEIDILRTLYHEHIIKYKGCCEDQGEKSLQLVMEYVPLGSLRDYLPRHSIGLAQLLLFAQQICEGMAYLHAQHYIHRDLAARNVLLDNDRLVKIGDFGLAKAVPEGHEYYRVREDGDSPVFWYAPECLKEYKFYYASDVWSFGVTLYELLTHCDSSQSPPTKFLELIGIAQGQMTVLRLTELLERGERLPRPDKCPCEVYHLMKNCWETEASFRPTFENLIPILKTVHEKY

[10] = molecular target: T9, PDGFRA (Homo sapiens, UniProt P16234)
T9 construct: literature Ambit Biosciences
T9 sequence (P16234 24-1089): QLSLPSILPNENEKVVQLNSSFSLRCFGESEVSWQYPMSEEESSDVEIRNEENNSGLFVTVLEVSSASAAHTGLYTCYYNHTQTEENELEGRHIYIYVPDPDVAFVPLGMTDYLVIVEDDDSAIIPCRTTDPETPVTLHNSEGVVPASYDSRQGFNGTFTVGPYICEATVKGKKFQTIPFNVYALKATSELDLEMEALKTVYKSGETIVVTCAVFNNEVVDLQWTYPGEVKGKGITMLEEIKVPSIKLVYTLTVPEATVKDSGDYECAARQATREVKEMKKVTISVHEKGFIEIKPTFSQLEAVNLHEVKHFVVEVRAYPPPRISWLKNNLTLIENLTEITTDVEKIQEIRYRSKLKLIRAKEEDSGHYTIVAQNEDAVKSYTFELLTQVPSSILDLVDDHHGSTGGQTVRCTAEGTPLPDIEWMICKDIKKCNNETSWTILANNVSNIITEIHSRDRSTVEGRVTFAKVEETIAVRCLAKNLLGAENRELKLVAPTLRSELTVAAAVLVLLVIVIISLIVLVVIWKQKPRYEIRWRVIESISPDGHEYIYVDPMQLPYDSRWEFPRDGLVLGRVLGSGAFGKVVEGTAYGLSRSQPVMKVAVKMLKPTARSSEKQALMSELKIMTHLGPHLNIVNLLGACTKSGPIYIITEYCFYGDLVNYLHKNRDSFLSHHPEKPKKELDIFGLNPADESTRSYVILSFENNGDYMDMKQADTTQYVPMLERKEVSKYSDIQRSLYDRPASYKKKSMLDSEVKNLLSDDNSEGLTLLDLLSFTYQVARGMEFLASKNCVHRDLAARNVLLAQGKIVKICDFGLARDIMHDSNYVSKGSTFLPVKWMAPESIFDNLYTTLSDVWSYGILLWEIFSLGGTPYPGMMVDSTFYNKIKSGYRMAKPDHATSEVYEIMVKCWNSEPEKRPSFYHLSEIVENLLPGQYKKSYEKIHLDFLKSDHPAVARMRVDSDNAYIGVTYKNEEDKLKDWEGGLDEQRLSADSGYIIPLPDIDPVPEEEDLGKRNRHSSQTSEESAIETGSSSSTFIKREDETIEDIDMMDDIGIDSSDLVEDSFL

[11] = molecular target: T10, RAF1 (Homo sapiens, UniProt P04049)
T10 construct: literature Ambit Biosciences
T10 sequence (P04049 whole entry): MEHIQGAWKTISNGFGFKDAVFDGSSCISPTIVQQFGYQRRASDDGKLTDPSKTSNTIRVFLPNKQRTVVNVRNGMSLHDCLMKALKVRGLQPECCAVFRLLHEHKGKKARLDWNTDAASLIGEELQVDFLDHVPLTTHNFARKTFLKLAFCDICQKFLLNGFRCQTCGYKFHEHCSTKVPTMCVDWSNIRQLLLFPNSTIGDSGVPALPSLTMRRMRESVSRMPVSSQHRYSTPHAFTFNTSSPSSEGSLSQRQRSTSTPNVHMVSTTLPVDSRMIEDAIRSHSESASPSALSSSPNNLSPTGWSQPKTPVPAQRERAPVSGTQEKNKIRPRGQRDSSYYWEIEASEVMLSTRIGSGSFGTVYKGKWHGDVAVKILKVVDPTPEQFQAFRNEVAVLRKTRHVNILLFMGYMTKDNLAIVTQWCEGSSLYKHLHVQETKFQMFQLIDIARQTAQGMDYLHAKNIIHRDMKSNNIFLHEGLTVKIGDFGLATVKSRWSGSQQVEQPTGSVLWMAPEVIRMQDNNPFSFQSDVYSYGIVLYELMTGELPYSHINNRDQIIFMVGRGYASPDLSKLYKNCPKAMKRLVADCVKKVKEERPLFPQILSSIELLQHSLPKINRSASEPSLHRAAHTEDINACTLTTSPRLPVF

T1 sequence (Q15759 whole entry): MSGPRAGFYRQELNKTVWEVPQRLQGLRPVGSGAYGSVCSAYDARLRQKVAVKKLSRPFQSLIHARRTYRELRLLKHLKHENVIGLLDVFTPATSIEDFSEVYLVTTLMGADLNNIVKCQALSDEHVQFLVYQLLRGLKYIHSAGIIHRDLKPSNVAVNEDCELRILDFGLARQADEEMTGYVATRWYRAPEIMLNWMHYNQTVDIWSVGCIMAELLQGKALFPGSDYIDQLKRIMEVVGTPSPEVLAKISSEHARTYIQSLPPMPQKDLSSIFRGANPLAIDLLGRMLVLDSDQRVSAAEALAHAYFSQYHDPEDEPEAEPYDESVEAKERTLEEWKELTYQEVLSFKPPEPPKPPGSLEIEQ

Compound	inhibition of p38-beta [1]	inhibition of DCAMKL1 [2]	inhibition of RIOK2 [3]	inhibition of ERBB2 [4]	inhibition of PLK4 [5]	inhibition of PIK3CA [6]	inhibition of PRKCE [7]	inhibition of BRAF(V600E) [8]	inhibition of TYK2 (catalytic) [9]	inhibition of PDGFRA [10]	inhibition of RAF1 [11]
Cc1ccc(NC(=O)c2[nH]c(C(F)(F)F)nc2-c2ccc(F)cc2)cc1Nc1ccc2ncn(C)c(=O)c2c1 [KIN-035]	X (X > 25% @ 1 μM)	X (X > 25% @ 1 μM)	X (X > 25% @ 1 μM)	X (X > 25% @ 1 μM)	X (X > 25% @ 1 μM)	X (X > 25% @ 1 μM)	X (X > 25% @ 1 μM)	XXXX (XXXX > 90% @ 1 μM)	X (X > 25% @ 1 μM)	XX (XX > 50% @ 1 μM)	XXXX (XXXX > 90% @ 1 μM)
Cc1ccc(-c2nc(C(F)(F)F)[nH]c2C(=O)Nc2ccc(C)c(Nc3ccc4ncn(C)c(=O)c4c3)c2)cc1F [KIN-038]	X (X > 25% @ 1 μM)	X (X > 25% @ 1 μM)	X (X > 25% @ 1 μM)	X (X > 25% @ 1 μM)	X (X > 25% @ 1 μM)	X (X > 25% @ 1 μM)	X (X > 25% @ 1 μM)	XXXX (XXXX > 90% @ 1 μM)	X (X > 25% @ 1 μM)	XX (XX > 50% @ 1 μM)	XXXX (XXXX > 90% @ 1 μM)
